How the values were obtained:
[1] = biological target: NLRP3 inflammasome (Homo sapiens, UniProt Q96P20); experiment: NLRP3 inflammasome activation in THP1 macrophages (LPS priming, nigericin), IL-1β AlphaLISA; format: cell-based; settings: PMA-differentiated THP1, LPS 20 ng/ml 3 hrs, compound 1 hr, Nigericin 6.7 uM 3 hrs, supernatant
[2] = tested on: IL-6; experiment: IL-6 release from LPS-primed, nigericin-treated THP1 macrophages, Hu IL-6 AlphaLISA; format: cell-based; settings: Homo sapiens, THP-1; PMA-differentiated THP1, LPS 20 ng/ml 3 hrs, compound 1 hr, Nigericin 6.7 uM 3 hrs, supernatant

Sequence of NLRP3 inflammasome (Q96P20 whole entry): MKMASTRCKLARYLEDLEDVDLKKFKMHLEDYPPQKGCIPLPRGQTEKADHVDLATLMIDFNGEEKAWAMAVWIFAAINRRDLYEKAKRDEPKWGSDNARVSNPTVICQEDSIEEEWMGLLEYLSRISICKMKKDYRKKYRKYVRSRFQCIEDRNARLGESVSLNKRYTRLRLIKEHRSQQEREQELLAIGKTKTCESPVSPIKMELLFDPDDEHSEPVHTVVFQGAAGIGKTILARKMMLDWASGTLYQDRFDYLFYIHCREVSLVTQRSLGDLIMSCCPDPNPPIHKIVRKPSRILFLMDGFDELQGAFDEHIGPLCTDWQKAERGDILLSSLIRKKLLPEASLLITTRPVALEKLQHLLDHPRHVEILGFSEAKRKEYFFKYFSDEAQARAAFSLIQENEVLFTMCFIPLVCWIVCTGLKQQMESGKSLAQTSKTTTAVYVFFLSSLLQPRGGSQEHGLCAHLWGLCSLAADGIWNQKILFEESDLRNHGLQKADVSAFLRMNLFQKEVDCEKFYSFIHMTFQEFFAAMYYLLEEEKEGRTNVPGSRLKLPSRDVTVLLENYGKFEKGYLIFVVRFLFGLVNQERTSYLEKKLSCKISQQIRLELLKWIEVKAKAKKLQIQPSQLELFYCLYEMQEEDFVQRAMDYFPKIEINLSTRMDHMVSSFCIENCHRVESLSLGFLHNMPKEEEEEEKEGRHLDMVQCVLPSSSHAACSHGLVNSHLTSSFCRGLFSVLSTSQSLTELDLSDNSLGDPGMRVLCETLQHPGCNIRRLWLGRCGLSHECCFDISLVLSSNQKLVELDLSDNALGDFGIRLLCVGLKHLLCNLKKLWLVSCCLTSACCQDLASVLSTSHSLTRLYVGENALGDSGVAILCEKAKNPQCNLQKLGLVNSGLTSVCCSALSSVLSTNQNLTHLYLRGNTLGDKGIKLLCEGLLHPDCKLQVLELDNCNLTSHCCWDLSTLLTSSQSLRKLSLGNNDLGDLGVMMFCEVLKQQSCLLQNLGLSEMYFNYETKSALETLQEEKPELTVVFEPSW

Row | IC50 [1] [nM] | IC50 [2] [nM] | SMILES
1 | ≤ 10 | > 10000 | CCN1CCC[C@@H](Nc2cc(C)c(-c3ccc(C(F)(F)F)cc3)nn2)C1 [compound 1]
2 | 10 to 50 | 5000 to 10000 | Cc1cc(N[C@@H]2CCCN(C)C2)nnc1-c1ccc(C(F)(F)F)cc1 [compound 3, (R)-5-methyl-N-(1-methylpiperidin-3-yl)-6-(4-(trifluoromethyl)phenyl)-pyridazin-3-amine]
3 | 10 to 50 | 5000 to 10000 | CN1CCC[C@@H](Nc2ccc(-c3ccc(Cl)cc3C(F)(F)F)nn2)C1 [compound 4]
4 | 10 to 50 | > 10000 | Cc1cc(N[C@@H]2CCCN(C)C2)nnc1-c1ccc(C(F)(F)F)cc1F [compound 6]
5 | 10 to 50 | > 10000 | Cc1cc(N[C@@H]2CCCN(C)C2)nnc1-c1ccc(OC(F)(F)F)cc1 [compound 7]
6 | 10 to 50 | > 10000 | COc1cc(C(F)(F)F)ccc1-c1nnc(N[C@@H]2CCCN(C)C2)cc1C [compound 8]
7 | 10 to 50 | 1000 to 5000 | Cc1cc(C(F)(F)F)ccc1-c1nnc(N[C@@H]2CCCN(C)C2)cc1C [compound 9]
8 | 10 to 50 | 5000 to 10000 | CCc1cc(N[C@@H]2CCCN(C)C2)nnc1-c1ccc(C(F)(F)F)cc1 [compound 10]
9 | 10 to 50 | 1000 to 5000 | Cc1ccc(-c2nnc(N[C@@H]3CCCN(C)C3)cc2C)cc1 [compound 11]
10 | 10 to 50 | > 10000 | CCc1ccc(-c2nnc(N[C@@H]3CCCN(C)C3)cc2C)cc1 [compound 12]
11 | 50 to 100 | 5000 to 10000 | Cc1ccc(-c2nnc(N[C@@H]3CCCN(C)C3)cc2C(F)(F)F)cc1 [compound 13]
12 | 10 to 50 | > 10000 | Cc1c(N[C@@H]2CCCN(C)C2)nnc(-c2ccc(C(F)(F)F)cc2)c1C [compound 14]
13 | 10 to 50 | > 10000 | Cc1cc(N[C@@H]2CCCN(CCO)C2)nnc1-c1ccc(C(F)(F)F)cc1 [compound 15, 2-[(3R)-3-[[5-methyl-6-[4-(trifluoromethyl)phenyl]pyridazin-3-yl]amino]-1-piperidyl]ethanol]
14 | 10 to 50 | > 10000 | Cc1cc(N[C@@H]2CCCN(C)C2)nnc1-c1ccc(F)cc1 [compound 16]
15 | 50 to 100 | > 10000 | Cc1cc(N[C@@H]2C[C@@H](F)CN(C)C2)nnc1-c1ccc(C(F)(F)F)cc1 [compound 17]
16 | 50 to 100 | 5000 to 10000 | CN1CCC[C@@H](Nc2ccc(-c3ccc(Cl)cc3Cl)nn2)C1 [compound 18]
17 | 100 to 500 | 5000 to 10000 | Cc1cc(C(F)(F)F)ccc1-c1ccc(N[C@@H]2CCCN(C)C2)nn1 [compound 19]
18 | 100 to 500 | > 10000 | CN1CCC[C@@H](Nc2ccc(-c3ccc(C(F)(F)F)cc3Cl)nn2)C1 [compound 20]
19 | 100 to 500 | 5000 to 10000 | Cc1ccc(-c2ccc(N[C@@H]3CCCN(C)C3)nn2)c(C)c1 [compound 21]
20 | 50 to 100 | > 10000 | Cc1cc(N[C@@H]2CCCNC2)nnc1-c1ccc(C(F)(F)F)cc1 [compound 22]
21 | 100 to 500 | > 10000 | CC(C)c1cc(N[C@@H]2CCCN(C)C2)nnc1-c1ccc(C(F)(F)F)cc1 [compound 23]
22 | 100 to 500 | > 10000 | CCN1CCC[C@@H](Nc2nnc(-c3ccc(C(F)(F)F)cc3)cc2C)C1 [compound 24]
23 | 50 to 100 | > 10000 | Cc1cc(N[C@@H]2CCCN(CCF)C2)nnc1-c1ccc(C(F)(F)F)cc1 [compound 25]

Row | IC50 [1] [nM] | IC50 [2] [nM] | SMILES
24 | 100 to 500 | > 10000 | Cc1cc(N[C@@H]2CCCN(C)C2)nnc1-c1ccc(C(F)(F)F)c(F)c1 [compound 26]
25 | 100 to 500 | > 10000 | Cc1cc(N[C@@H]2CCCN(C)C2)nnc1-c1ccc(F)cc1F [compound 27]
26 | 100 to 500 | 5000 to 10000 | Cc1cc(N[C@@H]2CCCN(C)C2)nnc1-c1ccc(C2CCC2)cc1 [compound 28]
27 | 100 to 500 | > 10000 | Cc1cc(-c2ccc(C(F)(F)F)cc2F)nnc1N[C@@H]1CCCN(C)C1 [compound 29]
28 | 100 to 500 | > 10000 | CCc1cc(-c2ccc(C(F)(F)F)cc2)nnc1N[C@@H]1CCCN(C)C1 [compound 30]
29 | 100 to 500 | > 10000 | Cc1cc(N[C@@H]2CCCN(C)C2)nnc1-c1ccc(C#N)cc1 [compound 31]
30 | 100 to 500 | > 10000 | COc1ccc(-c2nnc(N[C@@H]3CCCN(C)C3)cc2C)cc1 [compound 32]
31 | 100 to 500 | > 10000 | Cc1cc(N[C@@H]2CCCN(C)C2)nnc1-c1cc(C)c(F)c(C)c1 [compound 33]
32 | 100 to 500 | > 10000 | Cc1cc(N[C@@H]2CCCN(C)C2)nnc1-c1ccc(F)c(Cl)c1 [compound 34]
33 | 500 to 1000 | > 10000 | COc1cc(C(F)(F)F)ccc1-c1cc(C)c(N[C@@H]2CCCN(C)C2)nn1 [compound 35]
34 | 500 to 1000 | > 10000 | Cc1cc(-c2ccc(C(F)(F)F)cc2)nnc1N[C@@H]1CCCN(C)C1 [compound 36]
35 | 500 to 1000 | > 10000 | Cc1cc(N[C@@H]2CCCN(C)C2)nnc1-c1cccc(C(C)C)c1 [compound 37]
36 | 500 to 1000 | > 10000 | Cc1cc(-c2ccc(C(F)(F)F)c(F)c2)nnc1N[C@@H]1CCCN(C)C1 [compound 38]
37 | 500 to 1000 | > 10000 | Cc1cc(N[C@@H]2CCCN(C)C2)nnc1-c1ccc(C(F)(F)F)c(Cl)c1 [compound 39]
38 | 50 to 100 | 5000 to 10000 | Cc1cc(N[C@@H]2CCCN(C)C2)nnc1-c1ccc(C(F)(F)F)cc1C#N [compound 40]
39 | 100 to 500 | > 10000 | CN1CCC[C@@H](Nc2nnc(-c3ccc(C(F)(F)F)cc3)cc2Cl)C1 [compound 41]
40 | 500 to 1000 | 5000 to 10000 | Cc1cc(C(F)(F)F)cc(C)c1-c1ccc(N[C@@H]2CCCN(C)C2)nn1 [compound 42]
41 | > 1000 | 5000 to 10000 | Cc1cc(N[C@@H]2CCCN(C)C2)nnc1-c1cccc(Cl)c1 [compound 43]
42 | 100 to 500 | > 10000 | Cc1cccc(-c2nnc(N[C@@H]3CCCN(C)C3)cc2C)c1 [compound 44]
43 | > 1000 | > 10000 | Cc1cc(N[C@@H]2CCCN(C)C2)nnc1-c1cccc(F)c1 [compound 45]
44 | > 1000 | > 10000 | Cc1cc(N[C@@H]2CCCN(C)C2)nnc1-c1cccc(C(F)(F)F)c1 [compound 46]
45 | > 1000 | > 10000 | Cc1cc(-c2cccc(C(F)(F)F)c2)nnc1N[C@@H]1CCCN(C)C1 [compound 47]
46 | > 1000 | > 10000 | Cc1cc(N[C@@H]2CCCN(C)C2)nnc1-c1cccc(C#N)c1 [compound 50]

Row | IC50 [1] [nM] | IC50 [2] [nM] | SMILES
47 | > 1000 | > 10000 | Cc1cc(-c2cccc(C#N)c2)nnc1N[C@@H]1CCCN(C)C1 [compound 51]
48 | > 1000 | > 10000 | COc1cccc(-c2nnc(N[C@@H]3CCCN(C)C3)cc2C)c1 [compound 52]
49 | > 1000 | > 10000 | COc1cccc(-c2cc(C)c(N[C@@H]3CCCN(C)C3)nn2)c1 [compound 53]
50 | > 1000 | > 10000 | Cc1cc(N[C@@H]2CCCN(C)C2)nnc1-c1ccccc1 [compound 54]
51 | > 1000 | > 10000 | CCc1cccc(-c2nnc(N[C@@H]3CCCN(C)C3)cc2C)c1 [compound 55]
52 | > 1000 | > 10000 | Cc1cc(-c2cccc(F)c2)nnc1N[C@@H]1CCCN(C)C1 [compound 56]
53 | > 1000 | > 10000 | COc1ccc(-c2cc(C)c(N[C@@H]3CCCN(C)C3)nn2)cc1 [compound 58]
54 | 50 to 100 | > 10000 | CN1CCC[C@@H](Nc2cc(C#N)c(-c3ccc(C(F)(F)F)cc3)nn2)C1 [compound 59]
55 | 100 to 500 | 5000 to 10000 | Cc1cc(N[C@@H]2CCCN(CC(F)F)C2)nnc1-c1ccc(C(F)(F)F)cc1 [compound 60]
56 | 10 to 50 | > 10000 | CN1CCC[C@@H](Nc2cc(C(F)(F)F)c(-c3ccc(C(F)(F)F)cc3)nn2)C1 [compound 61]
57 | 10 to 50 | > 10000 | Cc1cc(-c2nnc(N[C@@H]3CCCN(C)C3)cc2C)ccc1F [compound 62]
58 | 100 to 500 | > 10000 | Cc1cc(N[C@@H]2CCCN(C)C2)nnc1-c1ccc(C(F)(F)F)c(C#N)c1 [compound 63]
59 | 100 to 500 | > 10000 | Cc1cc(N[C@@H]2CCCN(C)C2)nnc1-c1ccc(F)c(F)c1 [compound 64]
60 | 500 to 1000 | > 10000 | Cc1cc(N[C@@H]2CCCN(CCF)C2)nnc1-c1ccc(F)cc1 [compound 65]
61 | ≤ 10 | > 10000 | Cc1cc(N[C@@H]2CCCN(CC3CC3)C2)nnc1-c1ccc(C(F)(F)F)cc1 [compound 66]
62 | 100 to 500 | > 10000 | CN1CCC[C@@H](Nc2ccc(-c3ccc(C(F)(F)F)cc3)nn2)C1 [compound 67]
63 | ≤ 10 | > 10000 | Cc1cc(N[C@@H]2CCCN(C3CC3)C2)nnc1-c1ccc(C(F)(F)F)cc1 [compound 68]
64 | 50 to 100 | > 10000 | Cc1cc(N[C@H]2CN(C)CC(F)(F)C2)nnc1-c1ccc(C(F)(F)F)cc1 [compound 69]
65 | ≤ 10 | > 10000 | Cc1cc(N[C@@H]2CCCN(CC3CC3)C2)nnc1-c1ccc(F)cc1 [compound 70]
66 | 10 to 50 | > 10000 | Cc1cc(-c2ccc(N[C@@H]3CCCN(C)C3)nn2)c(C)cc1F [compound 71]
67 | 100 to 500 | > 10000 | Cc1cc(-c2ccc(C(F)(F)F)cc2C#N)nnc1N[C@@H]1CCCN(C)C1 [compound 72]
68 | 100 to 500 | > 10000 | Cc1cc(-c2ccc(F)c(Cl)c2)nnc1N[C@@H]1CCCN(C)C1 [compound 73]

From US20250074888A1, “PYRIDAZINE DERIVATIVES AS MODULATORS OF NLRP3 INFLAMMASOME AND RELATED METHODS” (Neumora Therapeutics, Inc., priority 2021, published 2025)
